The source of these data is publication PMC8615929, “Aspirin-Based Organoiron Dendrimers as Promising Anti-Inflammatory, Anticancer, and Antimicrobial Drugs” (Biomolecules, 2021).

Series [1] concerns breast cancer cell lines (MCF-7). The experiment in a line: MTT cell viability assay. Format: cell-based. As to conditions: Homo sapiens, MCF7, mean ± SE, unit inferred, read-out: Cytotoxicity (IC50), MCF-7. The method, then:
(§1) The cytotoxic activities of the tested dendrimers against the breast cancer cell line MCF-7, embryonic kidney non-cancer cells (HEK-293), and hepatic cellular Hep-G2 were evaluated by MTT assay. A cell suspension was diluted with complete medium to a concentration of 5 × 10^4 cell/ml. By using a micropipette, 100 μL aliquots of the cell suspension were pipetted into all wells of 96-well plate (~5000 cells/well). These plates were incubated at 37 °C for one day to allow cell attachment. Then, cells were treated using 100 µL of growth medium consisting of 0, 0.001, 0.01, 0.1, 1, 10, or 100 μL of the freshly prepared aspirin-based dendrimers in triplicate. After that, cells were rinsed with phosphate-buffered saline (PBS), and an appropriate fresh medium including 20 μL MTT in phosphate-buffered saline (0.5 mg/mL) was added to the test wells. The 96-well plate was then further incubated in a carbon dioxide incubator at 37 °C for another 4 h, and the MTT assay study was done. The MTT assay procedure is based on the reduction of the tetrazolium salt MTT to unsolvable purple formazan via metabolically effective cells, making their activities quantifiable via spectrophotometry. Consequently, the produced formazan crystals were dissolved in 120 μL DMSO solvent for each well. Cell viability was established by measuring the absorbance of each well at 570 nm, and at a reference wavelength of 630 nm using an ELISA plate reader. […] Vinblastine was used as the standard and the corresponding IC50 values were determined by Equation (1):(1) IC50(%)=ControlOD−CompoundOD/ControlODx 100
Background: Formazan colour is commonly taken as a measure of viable cells.

A short description of another series: MTT cell viability assay. As to conditions: human, mean ± SE, unit inferred. Format: cell-based. The method, then: as §1
The next series has as its target T1, COX-2 (Ovis aries, UniProt P79208).
T1 construct: purchased
T1 sequence (P79208 17-603): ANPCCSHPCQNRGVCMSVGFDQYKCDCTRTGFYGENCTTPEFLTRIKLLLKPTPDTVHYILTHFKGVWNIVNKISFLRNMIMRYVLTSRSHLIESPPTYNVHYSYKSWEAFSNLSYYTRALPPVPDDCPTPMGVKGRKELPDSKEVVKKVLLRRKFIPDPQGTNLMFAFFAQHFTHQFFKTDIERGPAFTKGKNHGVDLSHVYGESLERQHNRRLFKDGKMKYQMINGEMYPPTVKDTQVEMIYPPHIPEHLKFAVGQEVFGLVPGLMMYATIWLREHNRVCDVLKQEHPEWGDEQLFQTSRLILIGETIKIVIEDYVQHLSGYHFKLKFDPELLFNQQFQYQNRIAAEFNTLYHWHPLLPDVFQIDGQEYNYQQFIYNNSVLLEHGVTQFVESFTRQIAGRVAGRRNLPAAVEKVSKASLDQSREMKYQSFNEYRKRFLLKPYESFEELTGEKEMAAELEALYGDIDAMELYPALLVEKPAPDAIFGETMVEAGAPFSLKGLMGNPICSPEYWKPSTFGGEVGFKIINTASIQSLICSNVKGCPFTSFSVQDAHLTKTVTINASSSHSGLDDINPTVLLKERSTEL
Description: In vitro COX-2 inhibition assay (ovine COX-1/COX-2 assay kit). The series is classed as biochemical. From the text: The selectivity index (SI values) was defined as IC50 COX-1/ IC50 COX-2.
Recent studies on COX-1 and COX-2 inhibitors are focused on increasing the selectivity index of drugs towards […] as it acts as the main effector in the mechanism of pain and inflammation.

Series [2] concerns Klebsiella pneumoniae (ATCC10145). The experiment in a line: Agar well diffusion antimicrobial assay. To be noted: ATCC10145, 24 h, read-out: inhibition zone, K. pneumoniae. A general note: In agar diffusion tests the substance spreads into inoculated agar from a disc or well.
The subject of series [3] is Escherichia coli (ATCC 1175). The experiment in a line: Agar well diffusion antimicrobial assay. To be noted: ATCC1175, 24 h, read-out: inhibition zone, E. coli.
Series [4] has as its system Staphylococcus aureus (ATCC12600). The experiment in a line: Agar well diffusion antimicrobial assay. As to conditions: ATCC12600, 24 h, read-out: inhibition zone, S. aureus.
For series [5], the system named is carrageenan-induced paw edema. The experiment in a line: Carrageenan-induced rat paw edema assay. Format: in vivo. To be noted: oral. The protocol: The present study was performed on adult albino Wistar rats, weighing 185 ± 200 g. Animals were kept in the animal house at MSA university. They were kept under suitable conditions of humidity and temperature (humidity 60–70%, temperature 24 ± 2 °C). The animals were fed by standard pellet chow (El-Nasr chemical Co., Cairo, Egypt) and were given access to water ad libitum.
Inflammation was induced in all groups by carrageenan (0.2 mL, 1% saline solution), which was injected subcutaneously into the plantar surface of the right hind paw. Group 1 served as a normal group, group 2 received carrageenan only, and groups 3, 4, 5, 6, and 7 received the test drugs orally 1 h before carrageenan (n = 6). Edema was measured in diameter (mm) at 1 h, 2 h, 4 h, and 6 h after carrageenan injection using a digital caliper. Percentage edema inhibition was calculated as [1 − (sample diameter/control diameter)] × 100. All data of the paw edema are represented as mean ± SD.
The strength of the tested dendrimers to inhibit edema (% edema inhibition) was calculated based on the changes in paw thickness (edema diameter, mm) at different periods; 1 h, 2 h, 4 h, and 6 h (Table 4).
A general note: Carrageenan injected into the paw causes an acute inflammation.

The subject of a further series is Aspergillus niger. Description: Agar well diffusion antifungal assay.
For series [6], the system named is Bacillus subtilis (ATCC 6051). The experiment in a line: Agar well diffusion antimicrobial assay. As to conditions: ATCC6051, 24 h, read-out: inhibition zone, B. subtilis.
Another series has as its system Candida albicans. Description: Agar well diffusion antifungal assay.
Series [7] has as its system gastric mucosa. The experiment in a line: Evaluation of gastrointestinal toxicity (gastric ulcers). To be noted: rat, 400 mg/kg orally, 4 h, mean ± standard deviation. The series is classed as in vivo. The protocol: The gastric mucosa was carefully inspected for the occurrence of ulcers with the aid of an illuminated magnifying lens (l0×), the ulcer score was calculated according to published method and ulcer index was determined using the reported formula [60]. Ulcer index = 10/x, where x= total mucosal area/ total ulcerated area. All data are represented as mean ± standard deviation.
Rats were fasted for 24 h and then randomly allocated into the following groups to evaluate the potential toxicity of dendrimers on the stomach:
Group 3 received G1 (400 mg/kg) orally.
Group 4 received G2 (400 mg/kg) orally.
Group 5 received G3 (400 mg/kg) orally.
Group 6 received G4 (400 mg/kg) orally.
Animals were left for 4 h and then sacrificed under light anesthesia for stomach dissection. The gastric mucosa was carefully inspected for the occurrence of ulcers with the aid of an illuminated magnifying lens (l0x), the ulcer score was calculated based on published study and ulcer index was determined using the reported formula [60]. Ulcer index = 10/x, where x= total mucosal area/total ulcerated area.

For series [8], the system named is gastric mucosa. The experiment in a line: Histopathology examination of stomach. The series is classed as in vivo, rat. The protocol:
The stomach was dissected out, rinsed, and kept in a 10% neutral formalin solution. After fixation, tissues were routinely processed and stained with hematoxylin and eosin for light microscopy. Lesion scores were evaluated in this study according to a published report three parameters were evaluated in relation to their severity; epithelial cell loss was given a score from 0 to 3, hemorrhage was given a score from 0 to 4, and a score from 0 to 2 was given for inflammatory cell infiltration. The total score was given by the summation of the three scores.

A further series has as its system PGE2. Description: Determination of rat serum PGE2. Format: in vivo. As to conditions: 6 h after carrageenan, oral.
Where [9] appears, read: HEK-293 embryonic kidney non-cancer cells, normal cell line, read-out: Cytotoxicity (IC50), HEK-293.
The mark [10] stands for this setting: Hep-G2 cells, read-out: Cytotoxicity (IC50), Hep-G2.
The mark [11] stands for this setting: rat stomach, compared to the aspirin group.
Where [12] appears, read: 15 mg/mL, agar well diffusion, 37 °C 24 h, mean ± SE.

≈ marks a conversion by molar mass, not a printed value. Where two headings read alike, the source gives them in different places.

Description for PGE2: Inflammation was induced in all groups by carrageenan (0.2 mL, 1% saline solution) injected subcutaneously into the plantar surface of the right hind paw. Group 1 served as a normal group, group 2 received carrageenan only, and groups 3, 4, 5, 6, and 7 received the test drugs orally 1 h before carrageenan (n = 6) [58]. Blood samples were collected from all groups and centrifuged for 15 minutes to separate the serum and measure serum PGE2 Pg/mL. Percentage inhibition was calculated as [1 − (sample PGE2 concentration/control PGE2 concentration)] × 100. All data of the PGE2 concentration are represented as mean ± SD.
The ability of the dendrimers to inhibit PGE2 was evaluated by measuring the rat serum concentration of PGE2 in blood samples collected after 6 h from subcutaneous carrageenan injection.

A word on the IC50: it is the point on the concentration scale where inhibition reaches its midpoint. In the case of `COc1cccc2c1C(=O)c1c(O)c3c(c(O)c1C2=O)C[C@@](O)(C(=O)CO)C[C@@H]3O[C@H]1C[C@H](N)[C@H](O)[C@H](C)O1` [Doxorubicin], the IC50 in series [1] worked out at 5.7 ± 0.07 µg/mL (≈ 10.5 µM); in the series “MTT cell viability assay” (setting [9]), 205.07 ± 0.05 µg/mL (≈ 377 µM); in “MTT cell viability assay” (setting [10]) it was 4.8 ± 0.09 µg/mL (≈ 8.83 µM).

Take `CS(=O)(=O)c1ccc(C2=C(c3ccccc3)C(=O)OC2)cc1` [Rofecoxib]: on COX-2, it took 25 nM to reach half-maximal inhibition (IC50).

Regarding `CNC(C)C1CCC(N)C(OC2C(N)CC(N)C(OC3OCC(C)(O)C(NC)C3O)C2O)O1` (centres unmarked) [Gentamicin], the zone of inhibition at 15000 µg/mL was 22 ± 0.02 mm in [2] and 17 ± 0.04 mm in series [3].

`CC(=O)Oc1ccccc1C(=O)O` [Aspirin, acetylsalicylic acid]: the zone of inhibition at 15000 µg/mL in series [4] amounted to 30 ± 0.07 mm; in [2], 26 ± 0.11 mm; with Aspergillus niger (Aspergillus niger, 24 h, read-out: inhibition zone, A. niger), 30 ± 0.1 mm; in series [6] it was 23 ± 0.08 mm; with Candida albicans (Candida albicans, 24 h, read-out: inhibition zone, C. albicans) it was 29 ± 0.09 mm; in [3] it was 18 ± 0.06 mm. Moreover, the “% Inhibition of edema 1 h” value in [5] (1 h after carrageenan) amounted to 34.82%. Moreover, the “% Inhibition of edema 2 h” value in series [5] (2 h after carrageenan) worked out at 42.23%. Further, the “% Inhibition of edema 4 h” value in [5] (4 h after carrageenan) is listed as 35.08%. In addition, the “% Inhibition of edema 6 h” value in series [5] (6 h after carrageenan) was determined as 47.38%. This compound returned a Gastric Mucosal Lesions, Ulcer Area with gastric mucosa [7] of 86.9 ± 9.51 mm². Also, the “Gastric Mucosal Lesions, Ulcer Score” value in the series on gastric mucosa [7] came to 5.00 ± 0.00. The Epithelial loss score result in the series with gastric mucosa [8] (setting [11]) is “significantly higher epithelial loss score”. The Hemorrhage score entry in the series on gastric mucosa [8] (setting [11]) was “highest score of hemorrhage”. In the series with gastric mucosa [8] (rat, 400 mg/kg orally, H&E), the “Histopathological findings of stomach tissue” value is “serious histopathological alterations”. The “PGE2 Inhibition%” value in the series with PGE2 is given as 72.40%. Also, the IC50 turned out to be 208.96 ± 0.05 µg/mL (≈ 1160 µM) in [1], 240.18 ± 0.03 µg/mL (≈ 1330 µM) in the series “MTT cell viability assay” (setting [9]) and 192.4 ± 0.04 µg/mL (≈ 1070 µM) in “MTT cell viability assay” (setting [10]).

For the compound `CC1(C)S[C@@H]2[C@H](NC(=O)[C@H](N)c3ccccc3)C(=O)N2[C@H]1C(=O)O` [Ampicillin], the zone of inhibition at 15000 µg/mL in series [4] worked out at 15 ± 0.05 mm; in series [6], 25 ± 0.06 mm.

Regarding `C[C@@H]1[C@H](O)[C@@H](C)/C=C/C=C/CC/C=C/C=C/C=C/C=C/C(O[C@H]2O[C@H](C)[C@@H](O)[C@H](N)[C@@H]2O)CC2O[C@](O)(CC(O)C(O)CCC(O)CC(O)CC(O)CC(=O)O[C@H]1C)CC(O)C2C(=O)O` (some centres unmarked) [Nystatin], the “inhibition zone, A. niger” value in the series on Aspergillus niger (setting [12]) is reported as 15 ± 0.08 mm. For the same compound, the “inhibition zone, C. albicans” value with Candida albicans (setting [12]) is 21 ± 0.11 mm.
